Experiments:
TNF-α = experiment: Whole bovine blood assay, LPS-induced TNF-α; assay type: cell-based; conditions: fresh whole bovine blood, LPS stimulant; top drug concentration 250 μM
In short: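 Fresh heparinized bovine whole blood was preincubated with compound 4 h at 37 °C, then stimulated with LPS (final 1 μg/mL) for 18 h at 37 °C. Plasma TNF-α was quantified by MSD U-Plex chemiluminescent immunoassay, normalized to total protein (BCA), and IC50 taken for LPS-induced TNF-α inhibition.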

IL-1β = experiment: Whole bovine blood assay, LPS-induced IL-1β (inhibition / overstimulation); assay type: cell-based; conditions: drug concentration giving overstimulation (OS) of LPS-induced IL-1β, top concentration 250 μM
Description: Whole Blood Assay-Fresh whole bovine blood samples were collected into heparinized vacutainer tubes. Assay plates were prepared with 25 μL of drug diluted in PBS at varying concentration in 96 round bottom wells, then 225 μL of blood was added and plates incubated at 37° C. for 4 hours. Cells were stimulated with LPS (or PBS for controls) by adding 25 μL to the plates at a final concentration of 1 μg/mL and incubated at 37° C. for 18 hours. To collect plasma, plates were centrifuged at 2,000×g for 10 minutes and 100 μL of supernatant was transferred to a 96 well polypropylene plate that was sealed and stored at −80° C. Samples were assayed for cytokines using the Meso Scale Discovery (MSD) platform (described below). This same MSD platform was used to assess cytokines in the plasma collected directly from drug treated animals.
Cytokine Detection—An MSD U-Plex cytokine assay was developed following the MSD U-Plex protocol guide and included biotinylated capture antibodies against: bovine Interleukin (IL)-1β (Biorad), bovine IL-6 (R&D Systems) and bovine tumor necrosis factor (TNF)-α (R&D Systems). The anti-IL-1β antibody was biotinylated using EZ-Link Sulfo-NHS-Biotin (Thermo Scientific) at a challenge ratio of 1:20 according to manufacturer instructions. Assay calibrators (Kingfisher) were diluted to a concentration of […] in control lithium heparin plasma, followed by 4-fold serial dilutions into plasma. The detection antibodies were sulfo-tagged following the MSD quick guide conjugation protocol using a challenge ratio of 1:20. Antibodies were used at the following concentrations: anti-IL-1β at 1 μg/mL, anti-IL-6 at 1 μg/mL and anti-TNF-α at 0.5 μg/mL. Cytokines were quantified according to manufacturer's instructions using a chemiluminescent readout. In brief, 0.5 mL of all biotinylated antibodies were diluted to 10 μg/mL with Diluent 100 and paired to their respective linkers by adding 750 μL of supplied Linker solution and incubated for 30 minutes followed by addition of Stop solution for another 30 minutes. The linked antibodies were then diluted 10-fold into Stop solution. Plates were coated by adding 50 μL of antibody solutions per well and incubated covered and shaking for 1 hour at room temperature. Plates were washed three times with PBS/Tween20 prior to samples or standards being added at 30 μL per well and incubated as above. Plates were washed three times before detection antibodies were added along with 2% goat and rabbit serum to block and incubated same as above. Plates were washed a further three times before addition of 150 μL 2X Read buffer and read immediately on the SI6000 instrument (MSD). For soluble protein levels, a BCA protein kit (Thermofisher) was used. The cytokine concentrations (pg/mL) were normalized to the total protein levels for each sample. [Bassel et. al., BMC Veterinary Research (2020) 16:168]
Therefore, a fresh whole bovine blood assay was developed with LPS as a stimulant (TLR-4 agonist) and with IL-1β and TNF-α as the read-out. Compounds of the invention were evaluated against a positive control for their ability to inhibit LPS-induced IL-1β and TNF-α as an overall evaluation of relative potency and modulation of target pathways.
For M9, the top dose of 500 μM was not high enough to determine an overstimulation of IL-1 B which was recorded as not applicable (n/a). The enhanced response indicates increased concentration of IL-1β cytokine at the drug concentration indicated. This is generally observed when compounds are out of range (high concentration) and stimulate a cellular toxicity signal. Further data supporting this hypothesis includes murine studies using a P. multocida infection in mice.
TNFα is a cell signaling protein, cytokine, that plays a key role in both acute and chronic inflammation. […]

IC50 (TNF-α) [µM]	SMILES	minimal effective concentration (IL-1β) [µM]
55	CCCNC[C@]1(O)[C@H](C)O[C@@H](O[C@H]2[C@H](C)[C@@H](O[C@@H]3O[C@H](C)C[C@H](N(C)S(=O)(=O)c4cnc5ccsc5c4)[C@H]3O)[C@](C)(O)C[C@@H](C)CN[C@H](C)[C@@H](O)[C@](C)(O)[C@@H](CC)OC(=O)[C@@H]2C)C[C@@]1(C)OC [Example B-9]	40
> 250	CCCNC[C@]1(O)[C@H](C)O[C@@H](O[C@H]2[C@H](C)[C@@H](O[C@@H]3O[C@H](C)C[C@H](N(C)S(=O)(=O)c4cn(C)cn4)[C@H]3O)[C@](C)(O)C[C@@H](C)CN[C@H](C)[C@@H](O)[C@](C)(O)[C@@H](CC)OC(=O)[C@@H]2C)C[C@@]1(C)OC [Example B-16]	>250
29	CC[C@H]1OC(=O)[C@H](C)[C@@H](O[C@H]2C[C@@](C)(OC)[C@](O)(CNCCOC)[C@H](C)O2)[C@H](C)[C@@H](O[C@@H]2O[C@H](C)C[C@H](N(C)S(=O)(=O)c3ccc(Cl)cc3)[C@H]2O)[C@](C)(O)C[C@@H](C)CN[C@H](C)[C@@H](O)[C@]1(C)O [Example B-36]	16
22	CC[C@H]1OC(=O)[C@H](C)[C@@H](O[C@H]2C[C@@](C)(OC)[C@](O)(CNCCNC(C)=O)[C@H](C)O2)[C@H](C)[C@@H](O[C@@H]2O[C@H](C)C[C@H](N(C)S(=O)(=O)Nc3ccc(C(F)(F)F)cc3)[C@H]2O)[C@](C)(O)C[C@@H](C)CN[C@H](C)[C@@H](O)[C@]1(C)O [Example B-81]	15
28	CC[C@H]1OC(=O)[C@H](C)[C@@H](O)[C@H](C)[C@@H](O[C@@H]2O[C@H](C)C[C@H](N(C)S(=O)(=O)c3ccccc3)[C@H]2Oc2ccc(F)c(C(F)(F)F)c2)[C@](C)(O)C[C@@H](C)CN(C)[C@H](C)[C@@H](O)[C@]1(C)O [Example A-2]	40
68	CC[C@H]1OC(=O)[C@H](C)[C@@H](O[C@H]2C[C@@](C)(OC)[C@](O)(CNCCS(C)(=O)=O)[C@H](C)O2)[C@H](C)[C@@H](O[C@@H]2O[C@H](C)C[C@H](N(C)S(=O)(=O)c3ccc(C(F)(F)F)cc3)[C@H]2O)[C@](C)(O)C[C@@H](C)CN[C@H](C)[C@@H](O)[C@]1(C)O [Example B-126]	11
17	CC[C@H]1OC(=O)[C@H](C)[C@@H](O[C@H]2C[C@@](C)(OC)[C@](O)(CNCCCN3CCCC3=O)[C@H](C)O2)[C@H](C)[C@@H](O[C@@H]2O[C@H](C)C[C@H](N(C)S(=O)(=O)Nc3ccc(C(F)(F)F)cc3)[C@H]2O)[C@](C)(O)C[C@@H](C)CN[C@H](C)[C@@H](O)[C@]1(C)O [Example B-87]	9
10	CC[C@H]1OC(=O)[C@H](C)[C@@H](O)[C@H](C)[C@@H](O[C@H]2O[C@@H](C)C[C@@H](N(C)S(=O)(=O)Nc3ccccc3)[C@@H]2Oc2ccccc2)[C@](C)(O)C[C@@H](C)CN[C@H](C)[C@@H](O)[C@]1(C)O [Example A-4]	4
22	CC[C@H]1OC(=O)[C@H](C)[C@@H](O)[C@H](C)[C@@H](O[C@@H]2O[C@H](C)C[C@H](N(C)S(=O)(=O)c3ccccc3)[C@H]2Oc2ccc(OC)cc2)[C@](C)(O)C[C@@H](C)CN(C)[C@H](C)[C@@H](O)[C@]1(C)O [Example A-1]	16
31	CC[C@H]1OC(=O)[C@H](C)[C@@H](O[C@H]2C[C@@](C)(OC)[C@](O)(CNCCCN3CCCCC3)[C@H](C)O2)[C@H](C)[C@@H](O[C@@H]2O[C@H](C)C[C@H](N(C)S(=O)(=O)Nc3ccc(C(F)(F)F)cc3)[C@H]2O)[C@](C)(O)C[C@@H](C)CN[C@H](C)[C@@H](O)[C@]1(C)O [Example B-75]	>250
150	CCCNC[C@]1(O)[C@H](C)O[C@@H](O[C@H]2[C@H](C)[C@@H](O[C@@H]3O[C@H](C)C[C@H](N(C)S(C)(=O)=O)[C@H]3O)[C@](C)(O)C[C@@H](C)CN[C@H](C)[C@@H](O)[C@](C)(O)[C@@H](CC)OC(=O)[C@@H]2C)C[C@@]1(C)OC [Example B-59]	57
15	CC[C@H]1OC(=O)[C@H](C)[C@@H](O[C@H]2C[C@@](C)(OC)[C@](O)(CN3CCCCC3)[C@H](C)O2)[C@H](C)[C@@H](O[C@@H]2O[C@H](C)C[C@H](N(Cc3cccnc3)S(=O)(=O)Nc3ccc(C(F)(F)F)cc3)[C@H]2O)[C@](C)(O)C[C@@H](C)CN[C@H](C)[C@@H](O)[C@]1(C)O [Example C-39]	6

The next lines start with the compound.

SMILES	IC50 (TNF-α) [µM]	minimal effective concentration (IL-1β) [µM]
CCCNC[C@]1(O)[C@H](C)O[C@@H](O[C@H]2[C@H](C)[C@@H](O[C@@H]3O[C@H](C)C[C@H](N(C)S(=O)(=O)N(C)c4ccc(C#N)cc4)[C@H]3O)[C@](C)(O)C[C@@H](C)CN[C@H](C)[C@@H](O)[C@](C)(O)[C@@H](CC)OC(=O)[C@@H]2C)C[C@@]1(C)OC [Example B-62]	–	3
CCCNC[C@]1(O)[C@H](C)O[C@@H](O[C@H]2[C@H](C)[C@@H](O[C@@H]3O[C@H](C)C[C@H](N(C)S(=O)(=O)c4nccn4C)[C@H]3Oc3ccc(OC)cc3)[C@](C)(O)C[C@@H](C)CN[C@H](C)[C@@H](O)[C@](C)(O)[C@@H](CC)OC(=O)[C@@H]2C)C[C@@]1(C)OC [Example B-119]	–	6
CCCNC[C@]1(O)[C@H](C)O[C@@H](O[C@H]2[C@H](C)[C@@H](O[C@@H]3O[C@H](C)C[C@H](N(C)S(=O)(=O)c4c(C)noc4C)[C@H]3O)[C@](C)(O)C[C@@H](C)CN[C@H](C)[C@@H](O)[C@](C)(O)[C@@H](CC)OC(=O)[C@@H]2C)C[C@@]1(C)OC [Example B-4]	–	40
CCCNC[C@]1(O)[C@H](C)O[C@@H](O[C@H]2[C@H](C)[C@@H](O[C@@H]3O[C@H](C)C[C@H](N(C)S(=O)(=O)c4ccc(C#N)nc4)[C@H]3O)[C@](C)(O)C[C@@H](C)CN[C@H](C)[C@@H](O)[C@](C)(O)[C@@H](CC)OC(=O)[C@@H]2C)C[C@@]1(C)OC [Example B-17]	–	100
CCCNC[C@]1(O)[C@H](C)O[C@@H](O[C@H]2[C@H](C)[C@@H](O[C@@H]3O[C@H](C)C[C@H](N(C)S(=O)(=O)c4ccccc4)[C@H]3Oc3ccc(Cl)cn3)[C@](C)(O)C[C@@H](C)CN[C@H](C)[C@@H](O)[C@](C)(O)[C@@H](CC)OC(=O)[C@@H]2C)C[C@@]1(C)OC [Example B-135]	–	6
CCCNC[C@]1(O)[C@H](C)O[C@@H](O[C@H]2[C@H](C)[C@@H](O[C@@H]3O[C@H](C)C[C@H](N(C)S(=O)(=O)c4ccc(S(N)(=O)=O)cc4)[C@H]3O)[C@](C)(O)C[C@@H](C)CN[C@H](C)[C@@H](O)[C@](C)(O)[C@@H](CC)OC(=O)[C@@H]2C)C[C@@]1(C)OC [Example B-15]	–	>250
CCCNC[C@]1(O)[C@H](C)O[C@@H](O[C@H]2[C@H](C)[C@@H](O[C@@H]3O[C@H](C)C[C@H](N(C)S(N)(=O)=O)[C@H]3O)[C@](C)(O)C[C@@H](C)CN[C@H](C)[C@@H](O)[C@](C)(O)[C@@H](CC)OC(=O)[C@@H]2C)C[C@@]1(C)OC [Example B-140]	–	>250
CCCNC[C@]1(O)[C@H](C)O[C@@H](O[C@H]2[C@H](C)[C@@H](O[C@@H]3O[C@H](C)C[C@H](N(C)S(=O)(=O)c4ccc(S(C)(=O)=O)cc4)[C@H]3O)[C@](C)(O)C[C@@H](C)CN[C@H](C)[C@@H](O)[C@](C)(O)[C@@H](CC)OC(=O)[C@@H]2C)C[C@@]1(C)OC [Example B-11]	–	>250
